Data taken from patent publication US10695482B2, “Cartridge and method for increasing myocardial function” (SeaStar Medical, Inc., priority 2011, dated 2020).

Assays:
[1] = tested on: leukocytes in porcine blood; test: Microscopic flow chamber: leukocyte interaction with polysulfone membrane; assay type: cell-based, pig
Description: A custom microscopic flow chamber system was set up to enable microscopic analysis of leukocyte interaction with the SCD membrane. The flow chamber consisted of a polycarbonate housing with an inlet and outlet for perfusion. A polysulfone membrane was affixed to the polycarbonate block with a gasket which directed shear flow. The thickness of the gasket (100 μm) along with the length (2 cm) and the width of the channel (1.5 mm) determined the volume of the flow chamber. Microscopic imaging was accomplished through an optical window made up of a cover glass affixed to the bottom of the polycarbonate block. Either isolated blood or purified leukocytes were used for this study.
Isolated blood was prone to activation from excessive handling. Thus, 5 mL of fresh heparinized porcine blood was minimally manipulated prior to the flow chamber study. Briefly, leukocytes were fluorescently labeled using 50 μg/mL of Hoechst 33342 dye. Further, the leukocytes were activated by adding 1 μg/ml lipopolysaccharide (LPS) directly to the blood samples. […] Blood passed through the flow chamber at a rate of 20 μL/min with calculated shear forces between 1-10 dynes/cm^2. For each isolated blood sample, sequences were acquired in triplicate.
Microscopic analysis of cell capture events was accomplished using either a Zeiss Axiovert 200M or Axio-Observer epifluorescence microscope equipped with a microscope stage-top incubator to control environmental temperature and CO2 content. Fluorescence images were acquired with either a Zeiss MRm3 or an Icc1 camera at a frequency of 1 frame/second for 5 minutes, for analysis of leukocyte/membrane interaction, and at 1 frame/minute for 1 hour sequences, for analysis of long term leukocyte attachment. Frame by frame evaluation of leukocyte rolling, attachment and detachment of leukocytes was carried out to determine the total number and duration of these phenomena. An attachment event was defined as when a leukocyte appeared in the same location for multiple frames within a sequence. […]

[2] = tested on: leukocytes in human whole blood; test: In vitro whole blood leukocyte activation assay; assay type: cell-based; settings: for CD11b: n = 3; for IL-10: n = 4; for IL-8: n = 5; for IL-6: n = 7
Description: Heparinized human whole blood was added to tubes with or without lipopolysaccharide (LPS) (10 μg/mL) or formyl-Methionyl-Leucyl-Phenylalanine (fMLF, 50 nM). […] The release of IL-6, IL-8, or IL-10 was measured using commercially available ELISA kits from R&D Systems. The release of elastase was measured using a commercially available ELISA kit from Bender MedSystems. The release of lactoferrin was measured using a commercially available ELISA kit from EMD Chemicals. […] Samples were incubated for various times at 37° C. and 5% CO2. CD11b activation was measured using an FITC-conjugated mouse anti-human antibody (AbD Serotech) and evaluated on an Accuri C6 flow cytometer.

Compound | persistent leukocyte adhesion events ([1]; 1 hour sequences, LPS and citrate versus LPS only, preliminary analysis) | rolling events ([1]; LPS and citrate treated blood) | leukocyte attachment to polysulfone membranes during shear flow ([1]; LPS-activated blood, low ionized calcium, FIG. 17) | CD11b ([2]; Baseline) | IL-10 ([2]; Baseline) | IL-8 ([2]; Baseline) | IL-6 ([2]; Baseline) | CD11b ([2]; Stimulated (LPS, fMLF)) | IL-10 ([2]; Stimulated (LPS, fMLF)) | IL-8 ([2]; Stimulated (LPS, fMLF)) | IL-6 ([2]; Stimulated (LPS, fMLF))
O=C(O)CC(O)(CC(=O)O)C(=O)O [Citrate] | far fewer persistent leukocyte adhesion events | increase in rolling events | statistically significant decrease in leukocyte attachment | – | – | – | – | – | – | – | –
Heparin | – | – | – | 22.55 ± 1.06 MFI × 10^3 | 0.11 ± 0.07 ng/mL | 0.0 ± 0^ ng/mL | 0.18 ± 0.04 ng/mL | 53.43 ± 3.12 MFI × 10^3 | 3.74 ± 0.94 ng/mL | 34.18 ± 6.66 ng/mL | 65.42 ± 19.77 ng/mL
